Laboratory results reported in PMC9278454, “Dyhidro-β-agarofurans natural and synthetic as acetylcholinesterase and COX inhibitors: interaction with the peripheral anionic site (AChE-PAS), and anti-inflammatory potentials” (Journal of Enzyme Inhibition and Medicinal Chemistry, 2022).
Where two headings read alike, the source gives them in different places.

Legend:
ovine COX-1 = biological target: T1, ovine COX-1 (Ovis aries, UniProt P05979); experiment: COX Inhibitor Screening Assay kit, COX-1; assay type: biochemical
T1 construct: purchased 560131
T1 sequence (P05979 25-600): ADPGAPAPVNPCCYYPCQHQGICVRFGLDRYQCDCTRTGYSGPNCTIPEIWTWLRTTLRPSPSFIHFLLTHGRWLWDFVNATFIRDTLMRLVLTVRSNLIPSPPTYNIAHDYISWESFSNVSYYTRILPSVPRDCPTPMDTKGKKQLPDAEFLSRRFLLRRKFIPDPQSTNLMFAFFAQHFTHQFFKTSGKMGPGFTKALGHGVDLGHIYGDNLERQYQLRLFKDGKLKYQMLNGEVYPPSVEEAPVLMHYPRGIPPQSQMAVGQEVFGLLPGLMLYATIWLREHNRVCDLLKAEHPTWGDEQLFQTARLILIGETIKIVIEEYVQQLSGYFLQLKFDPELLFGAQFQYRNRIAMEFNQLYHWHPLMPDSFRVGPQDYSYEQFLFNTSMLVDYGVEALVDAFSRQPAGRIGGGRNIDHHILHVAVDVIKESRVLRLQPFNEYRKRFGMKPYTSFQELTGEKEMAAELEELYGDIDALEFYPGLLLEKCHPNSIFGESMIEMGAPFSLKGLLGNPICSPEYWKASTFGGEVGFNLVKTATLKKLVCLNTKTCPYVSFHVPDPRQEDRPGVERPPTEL

human recombinant COX-2 = biological target: T2, human recombinant COX-2 (Homo sapiens, UniProt P35354); experiment: biochemical; assay type: biochemical; conditions: for IC50: average of 3 independent runs, read-out: COX-2 IC50 (µM)±SE
T2 construct: purchased 560131
T2 sequence (P35354 18-604): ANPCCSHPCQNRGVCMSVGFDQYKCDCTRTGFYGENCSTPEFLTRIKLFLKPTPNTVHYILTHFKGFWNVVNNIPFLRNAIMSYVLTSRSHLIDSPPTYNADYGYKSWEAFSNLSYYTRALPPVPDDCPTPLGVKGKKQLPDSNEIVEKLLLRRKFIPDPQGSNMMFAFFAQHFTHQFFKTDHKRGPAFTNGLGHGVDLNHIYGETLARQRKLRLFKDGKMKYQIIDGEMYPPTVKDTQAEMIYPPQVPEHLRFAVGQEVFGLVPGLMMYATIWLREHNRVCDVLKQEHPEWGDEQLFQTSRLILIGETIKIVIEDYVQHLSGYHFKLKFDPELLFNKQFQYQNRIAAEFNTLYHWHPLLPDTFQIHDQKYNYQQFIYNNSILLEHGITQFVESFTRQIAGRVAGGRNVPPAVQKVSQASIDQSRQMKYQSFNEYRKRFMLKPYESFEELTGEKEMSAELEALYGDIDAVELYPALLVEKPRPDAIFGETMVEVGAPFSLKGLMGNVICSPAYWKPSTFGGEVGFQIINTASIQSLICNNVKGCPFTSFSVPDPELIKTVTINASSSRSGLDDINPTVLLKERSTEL

PAS of EeAChE = PAS of EeAChE (Electrophorus electricus, UniProt O42275); experiment: Propidium iodide displacement from the PAS of AChE (fluorescence); assay type: binding; conditions: EeAChE 7 µM, propidium iodide 8 µM; for % Displacement of propidium iodide 290 µM: compound 290 µM; for % Displacement of propidium iodide 340 µM: compound 340 µM
Sequence of PAS of EeAChE (O42275 24-633): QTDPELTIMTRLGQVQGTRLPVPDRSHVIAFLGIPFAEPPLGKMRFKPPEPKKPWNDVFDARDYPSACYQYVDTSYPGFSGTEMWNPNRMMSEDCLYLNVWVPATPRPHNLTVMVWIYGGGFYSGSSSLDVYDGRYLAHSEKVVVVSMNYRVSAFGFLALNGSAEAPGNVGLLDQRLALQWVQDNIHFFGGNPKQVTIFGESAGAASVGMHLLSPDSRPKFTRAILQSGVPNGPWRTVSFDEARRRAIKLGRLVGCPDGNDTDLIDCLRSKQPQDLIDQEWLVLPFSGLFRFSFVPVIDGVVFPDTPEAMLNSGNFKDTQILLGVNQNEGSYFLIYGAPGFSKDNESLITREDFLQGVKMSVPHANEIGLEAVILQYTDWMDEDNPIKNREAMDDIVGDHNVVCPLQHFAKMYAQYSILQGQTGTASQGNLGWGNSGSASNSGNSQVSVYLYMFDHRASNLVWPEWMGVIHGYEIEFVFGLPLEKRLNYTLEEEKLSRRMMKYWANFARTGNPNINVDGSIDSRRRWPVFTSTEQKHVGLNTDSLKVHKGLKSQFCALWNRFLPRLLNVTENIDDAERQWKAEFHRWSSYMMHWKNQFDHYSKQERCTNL
Experimental: The ability of compounds to competitively displace propidium iodide was evaluated by a fluorescence method[43]. […] Donepezil was used as reference compound. The blank contained propidium iodide of the same concentration in 1 mM Tris-HCl buffer pH 8.0. The measurements were carried out in triplicate on a microplate reader Perkin Elmer VictorX2 (Perkin Elmer, Singapur).

AChE [1] = biological target: T3, AChE (Electrophorus electricus, UniProt O42275); experiment: biochemical
T3 sequence (O42275 24-633): as above

AChE [2] = biological target: T3, AChE; conditions: read-out: AChE IC50 (µM)±SE; average of 3 independent runs
Tc-AChE = experiment: Kinetic characterisation of AChE inhibition (Lineweaver-Burk); assay type: biochemical, Torpedo californica
Experimental: The rate of enzyme activity was measured at eight different concentrations of substrate acetylthiocholine iodide (ATC).
Data analysis was carried out with SigmaPlot v10.0.

[3] = read-out: COX-1 IC50 (µM)±SE, average of 3 independent runs
[4] = selectivity index, COX-1 IC50 / COX-2 IC50

Row | Compound | IC50 (ovine COX-1) | SI(COX-1/COX-2) (human recombinant COX-2) | IC50 (human recombinant COX-2) | % Displacement of propidium iodide 290 µM (PAS of EeAChE) | % Displacement of propidium iodide 340 µM (PAS of EeAChE) | IC50 (AChE [1]) | IC50 (ovine COX-1; [3]) | IC50 (AChE [2]) | SI(COX-1/COX-2) (human recombinant COX-2; [4]) | Mode of AChE inhibition (Tc-AChE; Lineweaver-Burk plots, eight concentrations of substrate ATC) | Km (Tc-AChE; unchanged at increasing concentrations of the inhibitor, substrate ATC)
1 | CC(=O)O[C@@H]1[C@H](OC(=O)c2ccccc2)[C@@]2(C)[C@@H](OC(=O)c3ccccc3)C[C@@H]3[C@@H](OC(C)=O)[C@]2(OC3(C)C)[C@@](C)(O)[C@H]1OC(C)=O [Compound 11] | 13.08 ± 0.02 µM | 145.33 | 0.09 ± 0.005 µM | 12.1 ± 0.7% | 13.4 ± 0.2% | 30 ± 0.06 µM | – | – | – | – | –
2 | CC(=O)O[C@@H]1[C@@H]2[C@@H](OC(C)=O)[C@]3(OC2(C)C)[C@H](C)CC[C@H](O)[C@@]3(C)[C@H]1OC(=O)c1ccoc1 [Compound 10, 6β,8α-diacetoxy-9β-furoyloxy-1α-hydroxydihydro-β-agarofuran] | – | 47.37 | 0.29 ± 0.0003 µM | – | – | – | 13.74 ± 0.1 µM | 740 ± 0.045 µM | – | – | –
3 | CC1=CCC[C@@]2(C)CC[C@@H]3C[C@]12OC3(C)C [Compound 3, α-agarofuran] | 11.36 ± 0.035 µM | 66.82 | 0.17 ± 0.002 µM | 12.2 ± 0.2% | 15.8 ± 0.5% | 26 ± 0.012 µM | – | – | – | – | –
4 | CC(=O)OC[C@@]12[C@@H](OC(C)=O)CC[C@@H](C)[C@]13OC(C)(C)[C@H](C[C@@H]2OC(=O)c1ccccc1)[C@H]3OC(C)=O [Compound 9, 1α,6β,14-triacetoxy-9β-benzyloxydihydro-β-agarofuran] | 8.69 ± 0.03 µM | 124.14 | 0.07 ± 0.004 µM | – | – | 695 ± 0.001 µM | – | – | – | – | –
5 | CC1(C)OC23CC1CCC2(C)CCC(OC(=O)c1ccco1)C3CO (stereo not drawn) [Compound 6, 3α-furoyloxy-15-hydroxydihydro-β-agarofuran] | 12.69 ± 0.035 µM | 97.61 | 0.13 ± 0.003 µM | – | – | 32 ± 0.006 µM | – | – | – | – | –
6 | CC(=O)OC[C@]12[C@@H](OC(=O)c3ccccc3)[C@H](OC(C)=O)[C@@H]3[C@@H](OC(=O)c4ccccc4)[C@]1(OC3(C)C)[C@@](C)(O)[C@H](OC(C)=O)[C@H](OC(C)=O)[C@@H]2OC(C)=O [Compound 12, 1α,2α,3α,8α,14-pentaacetoxy-6β,9β-dibenzyloxy-4β-hydroxidihydro-β-agarofuran] | 14.2 ± 0.2 µM | – | 0.84 ± 0.012 µM | – | – | – | – | – | 16.92 | – | –
7 | Cc1ccc(C(C)C)cc1O [Carvacrol, reference compound] | – | – | – | – | – | 45 ± 0.031 µM | – | – | – | – | –
8 | CC1(C)OC23CC1CCC2(C)CCC(O)C3(C)O (stereo not drawn) [Compound 4, 3α,4α-dihydroxydihydro-β-agarofuran] | 14.21 ± 0.035 µM | 37.39 | 0.38 ± 0.007 µM | 13.9 ± 0.3% | 17.6 ± 0.5% | 17 ± 0.016 µM | – | – | – | non-competitive inhibitor | 110 µM
9 | CC(=O)OC1CCC2(C)CCC3CC2(OC3(C)C)C1(C)O (stereo not drawn) [Compound 5, 3α-acetoxy-4α-hydroxydhydro-β-agarofuran] | 13.08 ± 0.02 µM | 32.7 | 0.4 ± 0.0014 µM | – | – | 43 ± 0.015 µM | – | – | – | – | –
10 | CC1(C)OC23CC1CCC2(C)CCC(OC(=O)c1ccccc1)C3CO (stereo not drawn) [Compound 7] | 11.98 ± 0.042 µM | – | 0.21 ± 0.008 µM | – | – | – | – | – | 57.05 | – | –
11 | CC(=O)O[C@H]1CC[C@](C)(O)[C@]23OC(C)(C)[C@H](C[C@H](OC(=O)c4ccoc4)[C@]12C)[C@H]3OC(=O)c1ccoc1 [Compound 8, 1α-Acetoxy-6β,9β-difuroyloxy-4β-hydroxydihydro-β-agarofuran] | – | 264.75 | 0.04 ± 0.007 µM | – | – | – | 10.59 ± 0.02 µM | 738 ± 0.007 µM | – | – | –
12 | CC(=O)O[C@@H]1[C@H]2[C@@H](O)[C@H](OC(=O)c3ccccc3)[C@]3(C)[C@@H](O)CC[C@@H](C)[C@@]13OC2(C)C [Compound 13] | 11.36 ± 0.035 µM | 103.27 | 0.11 ± 0.007 µM | – | – | 500 ± 0.03 µM | – | – | – | – | –
